In patent US7605142B2, “Expression of cyclin G1 in tumors” (University of Southern California, priority 1995, dated 2009):

System: MG-63 cells
Assay: Ganciclovir cytotoxicity/bystander effects in HStk vector transduced MG-63 cells
Type: cell-based, human
Settings: GCV 20 μg/ml, 10 days
Experimental: Initial dose-response studies determined the sensitivity of MG-63 cells and the optimal concentrations of G418 used to select transduced cells. Upon G418 selection, varying proportions of HStk-transduced and non-transduced MG-63 cells (plating density 2.5×10^4 cells) were exposed to 20 μg GCV/ml D10 in each of six-well plates, for 10 days. […] Bystander effects of GCV treatment were compared to those in HStk-transduced NIH 3T3 cells (ATCC No. CRL 1658).

Nc1nc(O)c2ncn(COC(CO)CO)c2n1 [GCV, ganciclovir]
degree of confluency (10% HStk+/90% HStk− MG-63 cells): 15% | degree of confluency (30% HStk+/70% HStk− MG-63 cells): 15% | degree of confluency (50% HStk+/50% HStk− MG-63 cells): 10% | degree of confluency (100% HStk− (non-transduced) MG-63 cells): 75% | degree of confluency (greater than 50% HStk+ MG-63 cells): < 10%
